The numbers were not newly measured in patent EP4406531A1, “DOSAGE FORM FOR INTRA-ARTICULAR INJECTION […] AN […] IN THE TREATMENT OF CRYSTAL-AND NON-CRYSTAL […] IN[…]” (PK MED, priority 2023, dated 2024), which cites them from elsewhere.

The conditions of this data set: literature (Niel et al. 2006).

Regarding `COc1cc2c(c(OC)c1OC)-c1ccc(OC)c(=O)cc1[C@@H](NC(C)=O)CC2` [colchicine, N-[(7S)-1,2,3,10-tetramethoxy-9-oxo-6,7-dihydro-5H-benzo[a]heptalen-7-yl]acetamide], the lethal dose is 0.8 mg/kg and the toxicity limit is 0.1 mg/kg.
